pIC50: −log10 of the molar value.
What was measured:
[1] = target: Cytochrome P450 3A4 (Homo sapiens, UniProt P08684); experiment: Inhibition of CYP3A4 (unknown origin); format: ADME
[2] = in vitro; settings: PAMPA
[3] = in vitro; settings: rat, liver microsomes
[4] = target: cAMP and cAMP-inhibited cGMP 3',5'-cyclic phosphodiesterase 10A (Homo sapiens, UniProt Q9Y233)
[5] = target: Cone cGMP-specific 3',5'-cyclic phosphodiesterase subunit alpha' (Homo sapiens, UniProt P51160); experiment: Inhibition of PDE6C (1 to 858 residues) (unknown origin) using 3H-cGMP as substrate incubated for 15 mins by liquid scintillation counter analysis
[6] = target: Cytochrome P450 2C19 (Homo sapiens, UniProt P33261); experiment: Inhibition of CYP2C19 (unknown origin); format: ADME
Chain of Cytochrome P450 2C19 (P33261 whole entry, the tested form may be a part): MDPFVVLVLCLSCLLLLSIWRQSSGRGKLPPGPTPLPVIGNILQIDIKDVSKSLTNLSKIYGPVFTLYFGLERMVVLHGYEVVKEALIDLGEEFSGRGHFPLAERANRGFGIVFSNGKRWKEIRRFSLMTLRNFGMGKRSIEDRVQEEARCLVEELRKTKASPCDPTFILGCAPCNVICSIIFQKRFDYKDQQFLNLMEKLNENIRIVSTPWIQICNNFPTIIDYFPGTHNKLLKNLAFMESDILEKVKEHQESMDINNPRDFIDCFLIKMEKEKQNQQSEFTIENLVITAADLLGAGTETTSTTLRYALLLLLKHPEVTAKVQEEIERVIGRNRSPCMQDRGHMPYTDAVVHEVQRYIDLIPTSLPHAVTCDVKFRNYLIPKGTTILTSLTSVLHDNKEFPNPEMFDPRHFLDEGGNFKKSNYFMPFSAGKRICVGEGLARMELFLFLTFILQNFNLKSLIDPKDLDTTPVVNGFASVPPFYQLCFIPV

[7] = target: 3',5'-cyclic-AMP phosphodiesterase 4D (Homo sapiens, UniProt Q08499); experiment: Inhibition of PDE4D (86 to 413 residues) (unknown origin) using 3H-cAMP as substrate incubated for 15 mins by liquid scintillation counter analysis
[8] = target: cGMP-inhibited 3',5'-cyclic phosphodiesterase 3A (Homo sapiens, UniProt Q14432); experiment: Inhibition of PDE3A (679 to 1087 residues) (unknown origin) using 3H-cAMP as substrate incubated for 15 mins by liquid scintillation counter analysis
Chain of cGMP-inhibited 3',5'-cyclic phosphodiesterase 3A (Q14432 whole entry, the tested form may be a part): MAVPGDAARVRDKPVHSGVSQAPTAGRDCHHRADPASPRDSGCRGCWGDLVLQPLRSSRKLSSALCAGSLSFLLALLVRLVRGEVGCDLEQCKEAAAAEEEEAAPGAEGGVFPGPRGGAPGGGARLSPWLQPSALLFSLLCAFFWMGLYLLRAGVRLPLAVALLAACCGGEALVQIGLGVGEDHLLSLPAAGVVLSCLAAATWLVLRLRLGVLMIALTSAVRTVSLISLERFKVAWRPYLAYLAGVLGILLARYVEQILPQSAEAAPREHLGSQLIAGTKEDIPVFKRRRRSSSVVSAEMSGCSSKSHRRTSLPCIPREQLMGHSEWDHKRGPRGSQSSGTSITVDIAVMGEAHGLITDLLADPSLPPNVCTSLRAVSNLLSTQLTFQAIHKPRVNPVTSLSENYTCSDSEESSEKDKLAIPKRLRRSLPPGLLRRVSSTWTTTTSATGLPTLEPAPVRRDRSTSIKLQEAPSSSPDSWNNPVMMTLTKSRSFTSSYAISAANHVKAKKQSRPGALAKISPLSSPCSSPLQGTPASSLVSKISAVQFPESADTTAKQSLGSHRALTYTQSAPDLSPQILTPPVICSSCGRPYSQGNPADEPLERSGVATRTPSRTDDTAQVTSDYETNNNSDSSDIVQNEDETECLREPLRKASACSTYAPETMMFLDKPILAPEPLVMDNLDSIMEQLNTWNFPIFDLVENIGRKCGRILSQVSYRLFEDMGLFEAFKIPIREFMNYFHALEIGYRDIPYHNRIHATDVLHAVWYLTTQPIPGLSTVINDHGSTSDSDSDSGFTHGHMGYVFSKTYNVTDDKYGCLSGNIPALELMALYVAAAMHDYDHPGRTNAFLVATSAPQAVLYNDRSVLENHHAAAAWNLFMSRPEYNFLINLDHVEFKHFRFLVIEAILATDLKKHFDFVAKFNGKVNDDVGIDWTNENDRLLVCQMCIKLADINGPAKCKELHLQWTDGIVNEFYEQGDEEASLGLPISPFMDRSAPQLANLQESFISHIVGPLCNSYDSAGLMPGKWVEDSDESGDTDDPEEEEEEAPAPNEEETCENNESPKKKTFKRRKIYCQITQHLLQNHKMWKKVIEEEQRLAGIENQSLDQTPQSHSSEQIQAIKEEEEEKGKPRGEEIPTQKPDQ

[9] = target: cGMP-dependent 3',5'-cyclic phosphodiesterase (Homo sapiens, UniProt O00408); experiment: Inhibition of PDE2A (580 to 919 residues) (unknown origin) using 3H-cGMP as substrate incubated for 15 mins by liquid scintillation counter analysis
Chain of cGMP-dependent 3',5'-cyclic phosphodiesterase (O00408 whole entry, the tested form may be a part): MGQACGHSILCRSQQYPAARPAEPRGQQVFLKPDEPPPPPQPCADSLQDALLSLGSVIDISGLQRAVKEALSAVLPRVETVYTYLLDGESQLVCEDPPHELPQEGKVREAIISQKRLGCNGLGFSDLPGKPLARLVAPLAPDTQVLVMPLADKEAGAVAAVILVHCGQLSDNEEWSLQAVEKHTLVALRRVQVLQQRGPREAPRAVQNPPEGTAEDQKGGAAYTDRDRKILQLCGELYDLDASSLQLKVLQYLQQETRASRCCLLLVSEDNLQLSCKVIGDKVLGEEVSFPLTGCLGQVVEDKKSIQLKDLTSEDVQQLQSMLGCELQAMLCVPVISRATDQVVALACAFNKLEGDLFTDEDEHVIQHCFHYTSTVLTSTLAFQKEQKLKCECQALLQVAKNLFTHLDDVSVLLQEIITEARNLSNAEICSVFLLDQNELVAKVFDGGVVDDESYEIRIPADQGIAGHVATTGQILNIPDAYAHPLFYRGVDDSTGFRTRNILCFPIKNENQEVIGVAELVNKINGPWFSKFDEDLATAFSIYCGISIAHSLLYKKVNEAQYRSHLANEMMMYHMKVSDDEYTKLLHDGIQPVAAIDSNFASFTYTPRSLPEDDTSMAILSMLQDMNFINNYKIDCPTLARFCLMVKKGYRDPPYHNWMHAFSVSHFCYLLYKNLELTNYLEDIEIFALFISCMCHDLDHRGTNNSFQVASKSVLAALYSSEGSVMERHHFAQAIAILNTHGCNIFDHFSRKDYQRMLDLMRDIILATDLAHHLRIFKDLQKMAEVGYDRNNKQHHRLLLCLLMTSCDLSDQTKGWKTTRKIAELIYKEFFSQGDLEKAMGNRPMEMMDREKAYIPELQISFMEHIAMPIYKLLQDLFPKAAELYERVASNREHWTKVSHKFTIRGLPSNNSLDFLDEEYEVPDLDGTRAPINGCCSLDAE

[10] = target: Cytochrome P450 2C9 (Homo sapiens, UniProt P11712); experiment: Inhibition of CYP2C9 (unknown origin); format: ADME
Chain of Cytochrome P450 2C9 (P11712 whole entry, the tested form may be a part): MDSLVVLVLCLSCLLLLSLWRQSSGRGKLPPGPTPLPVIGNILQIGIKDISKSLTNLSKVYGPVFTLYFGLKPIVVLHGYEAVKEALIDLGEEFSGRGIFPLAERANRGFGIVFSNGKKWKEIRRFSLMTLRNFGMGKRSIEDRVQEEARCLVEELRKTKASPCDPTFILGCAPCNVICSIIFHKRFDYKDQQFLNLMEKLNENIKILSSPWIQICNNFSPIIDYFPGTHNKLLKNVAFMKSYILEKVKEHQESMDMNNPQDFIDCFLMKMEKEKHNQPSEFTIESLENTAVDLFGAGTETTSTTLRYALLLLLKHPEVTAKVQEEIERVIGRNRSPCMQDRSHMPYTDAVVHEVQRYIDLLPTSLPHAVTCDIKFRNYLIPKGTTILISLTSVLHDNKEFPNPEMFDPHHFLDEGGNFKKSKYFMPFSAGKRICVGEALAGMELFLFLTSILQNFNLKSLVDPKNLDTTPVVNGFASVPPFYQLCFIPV

[11] = target: Dual specificity calcium/calmodulin-dependent 3',5'-cyclic nucleotide phosphodiesterase 1C (Homo sapiens, UniProt Q14123); experiment: Inhibition of PDE1C (147 to 531 residues) (unknown origin) using 3H-cGMP/3H-cAMP as substrate incubated for 15 mins by liquid scintillation counter analysis
[12] = target: High affinity cGMP-specific 3',5'-cyclic phosphodiesterase 9A (Homo sapiens, UniProt O76083); experiment: Inhibition of recombinant PDE9A2 (181 to 506 residues) (unknown origin) extracted from Escherichia coli BL21 using 3H-cGMP as substrate incubated for 15 mins by liquid scintillation counter analysis
[13] = target: Dual 3',5'-cyclic-AMP and -GMP phosphodiesterase 11A (Homo sapiens, UniProt Q9HCR9); experiment: Inhibition of PDE11A4 (588 to 911 residues) (unknown origin) using 3H-cGMP/3H-cAMP as substrate incubated for 15 mins by liquid scintillation counter analysis
Chain of Dual 3',5'-cyclic-AMP and -GMP phosphodiesterase 11A (Q9HCR9 whole entry, the tested form may be a part): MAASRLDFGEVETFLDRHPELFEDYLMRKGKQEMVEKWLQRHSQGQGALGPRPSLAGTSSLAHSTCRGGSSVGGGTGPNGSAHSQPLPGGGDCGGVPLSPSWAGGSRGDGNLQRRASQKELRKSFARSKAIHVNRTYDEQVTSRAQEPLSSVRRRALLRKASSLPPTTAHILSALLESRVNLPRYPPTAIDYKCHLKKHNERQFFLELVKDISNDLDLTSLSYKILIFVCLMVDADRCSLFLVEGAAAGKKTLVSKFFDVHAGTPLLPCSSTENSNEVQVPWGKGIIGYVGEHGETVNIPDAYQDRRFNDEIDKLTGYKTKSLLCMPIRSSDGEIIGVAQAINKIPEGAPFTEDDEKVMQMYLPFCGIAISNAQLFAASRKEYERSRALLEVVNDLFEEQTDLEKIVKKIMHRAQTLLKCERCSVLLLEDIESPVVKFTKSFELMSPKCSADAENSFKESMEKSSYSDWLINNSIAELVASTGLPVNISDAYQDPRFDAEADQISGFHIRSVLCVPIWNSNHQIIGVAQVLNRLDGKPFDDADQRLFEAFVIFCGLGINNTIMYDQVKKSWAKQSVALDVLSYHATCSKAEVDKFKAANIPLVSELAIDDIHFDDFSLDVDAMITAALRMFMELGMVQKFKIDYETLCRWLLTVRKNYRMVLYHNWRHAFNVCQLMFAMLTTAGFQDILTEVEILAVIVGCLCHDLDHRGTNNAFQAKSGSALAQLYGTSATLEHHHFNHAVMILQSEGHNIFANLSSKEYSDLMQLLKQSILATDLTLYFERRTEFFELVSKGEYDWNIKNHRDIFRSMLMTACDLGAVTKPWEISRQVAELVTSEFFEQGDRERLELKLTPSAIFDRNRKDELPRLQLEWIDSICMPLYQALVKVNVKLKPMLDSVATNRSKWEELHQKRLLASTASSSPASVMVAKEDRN

[14] = target: Cytochrome P450 2D6 (Homo sapiens, UniProt P10635); experiment: Inhibition of CYP2D6 (unknown origin); format: ADME
[15] = target: cGMP-specific 3',5'-cyclic phosphodiesterase (Homo sapiens, UniProt O76074); experiment: Inhibition of PDE5A1 (535 to 860 residues) (unknown origin) extracted from Escherichia coli BL21 using 3H-cGMP as substrate incubated for 15 mins by liquid scintillation counter analysis
[16] = target: T1, Cytochrome P450 1A2 (Homo sapiens, UniProt P05177); experiment: Inhibition of CYP1A2 (unknown origin); format: ADME
T1 sequence (P05177 whole entry): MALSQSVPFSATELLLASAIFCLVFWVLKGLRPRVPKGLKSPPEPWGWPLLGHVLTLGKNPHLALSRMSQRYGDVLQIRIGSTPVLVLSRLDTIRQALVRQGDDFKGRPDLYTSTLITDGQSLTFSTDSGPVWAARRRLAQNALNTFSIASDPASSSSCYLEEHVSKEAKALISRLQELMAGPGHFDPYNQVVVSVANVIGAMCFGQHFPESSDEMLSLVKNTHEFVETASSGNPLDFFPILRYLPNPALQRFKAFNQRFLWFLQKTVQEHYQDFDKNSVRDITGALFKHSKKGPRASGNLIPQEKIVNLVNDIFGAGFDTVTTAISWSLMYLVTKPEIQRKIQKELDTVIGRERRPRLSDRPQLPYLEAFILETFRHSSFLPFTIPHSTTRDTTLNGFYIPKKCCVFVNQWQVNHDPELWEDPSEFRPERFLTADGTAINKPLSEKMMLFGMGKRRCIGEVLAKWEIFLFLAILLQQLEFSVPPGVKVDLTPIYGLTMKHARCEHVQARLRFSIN

[17] = target: High affinity 3',5'-cyclic-AMP phosphodiesterase 7A (Homo sapiens, UniProt Q13946); experiment: Inhibition of PDE7A1 (130 to 482 residues) (unknown origin) using 3H-cAMP as substrate incubated for 15 mins by liquid scintillation counter analysis
Chain of High affinity 3',5'-cyclic-AMP phosphodiesterase 7A (Q13946 whole entry, the tested form may be a part): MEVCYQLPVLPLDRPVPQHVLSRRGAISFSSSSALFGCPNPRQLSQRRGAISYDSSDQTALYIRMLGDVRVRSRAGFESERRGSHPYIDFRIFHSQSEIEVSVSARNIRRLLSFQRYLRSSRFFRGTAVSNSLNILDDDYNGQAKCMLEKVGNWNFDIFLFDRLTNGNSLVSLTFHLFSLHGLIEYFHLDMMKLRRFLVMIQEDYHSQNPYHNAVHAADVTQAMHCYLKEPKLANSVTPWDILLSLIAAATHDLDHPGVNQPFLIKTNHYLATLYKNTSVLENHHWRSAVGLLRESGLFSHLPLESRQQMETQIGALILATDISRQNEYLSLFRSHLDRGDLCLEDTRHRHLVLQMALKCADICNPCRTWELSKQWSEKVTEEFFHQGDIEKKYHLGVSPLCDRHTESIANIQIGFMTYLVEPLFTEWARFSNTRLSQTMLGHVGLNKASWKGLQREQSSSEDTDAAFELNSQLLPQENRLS

Chain of Cytochrome P450 3A4 (P08684 whole entry): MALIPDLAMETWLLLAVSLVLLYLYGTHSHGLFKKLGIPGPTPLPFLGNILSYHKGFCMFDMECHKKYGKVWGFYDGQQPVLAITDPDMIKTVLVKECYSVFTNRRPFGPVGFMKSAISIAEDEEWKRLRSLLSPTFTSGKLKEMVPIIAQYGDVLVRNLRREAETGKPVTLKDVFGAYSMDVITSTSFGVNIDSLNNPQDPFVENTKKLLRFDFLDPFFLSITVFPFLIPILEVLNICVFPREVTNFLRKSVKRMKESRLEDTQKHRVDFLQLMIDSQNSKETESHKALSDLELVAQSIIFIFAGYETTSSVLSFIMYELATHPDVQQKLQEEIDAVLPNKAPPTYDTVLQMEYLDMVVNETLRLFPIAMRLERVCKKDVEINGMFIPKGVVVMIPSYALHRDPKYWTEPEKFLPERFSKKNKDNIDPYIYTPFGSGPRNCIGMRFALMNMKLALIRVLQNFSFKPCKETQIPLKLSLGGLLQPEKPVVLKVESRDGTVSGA

Row | pIC50 [1] | Papp [2] | half-life [3] | pIC50 [4] | pIC50 [5] | pIC50 [6] | pIC50 [7] | pIC50 [8] | pIC50 [9] | pIC50 [10] | pIC50 [11] | pIC50 [12] | pIC50 [13] | pIC50 [14] | pIC50 [15] | pIC50 [16] | pIC50 [17] | SMILES
1 | 6.68 | 1.47 ×10⁻⁶ cm/s | 25 min |  |  |  |  |  |  |  |  |  |  |  |  |  |  | Cc1ccc2c(c1)nc(/C=C/c1cccc3cccnc13)n2-c1cccc(OCCCN2CCN(C)CC2)c1
2 |  |  | 0.72 min | 7.51 |  |  |  |  |  |  |  |  |  |  |  |  |  | Cc1ccc2c(c1)nc(C1CN(c3nc(Cl)nc4ccccc34)C1)n2-c1ccccc1
3 | < 4.52 |  |  |  | < 5.00 | < 4.52 | 5.89 | < 5.00 | < 5.00 | < 4.52 | < 5.00 | < 5.00 | < 5.00 | 5.01 | < 5.00 | < 4.52 | < 5.00 | CCOC(=O)c1c(C2CN(c3cc(C(=O)NCCN(CC)CC)c4ccccc4n3)C2)nc2ccccn12

— ChEMBL document CHEMBL6182862, “Discovery of novel azetidine-based imidazopyridines as selective and orally bioavailable inhibitors of phosphodiesterase 10A for the treatment of pulmonary arterial hypertension” (Eur J Med Chem, 2025)
